Assay results taken from patent US20250382344A1, “Soluble GLP1/GIP/NPY2 Receptor Triple Agonists” (Boehringer Ingelheim International GmH, priority 2024, published 2025).
Where two headings read alike, the source gives them in different places. *1 amine or outer side, *2 acyl side, *3 side chain or, on linkers, in order; H or OH if unused. Where a SMILES comes first, the peptide text is derived from it. Side-chain parts run from the residue outwards. [ ]: non-standard residue; d: D form. The star is where a group is joined. C18 diacid = O=C(O)CCCCCCCCCCCCCCCCC(=O)*; γGlu = O=C(O)[C@H](CCC(=O)[*:2])N[*:1]; εLys = N[C@@H](CCCCN[*:1])C(=O)[*:2]; Aib = CC(C)(N)C(=O)O

Columns and labels:
[1] = target: T1, hGLP1R (Homo sapiens, UniProt P43220); test: hGLP1R CreLuc assay in 0.5% and 100% plasma (HEK-293 CRE-luciferase reporter cells); format: cell-based; details: HEK-293 reporter cells
T1 construct: expressed in transfected cells; host or cells: HEK-293 CRE-luciferase reporter cells
T1 sequence (P43220 24-463): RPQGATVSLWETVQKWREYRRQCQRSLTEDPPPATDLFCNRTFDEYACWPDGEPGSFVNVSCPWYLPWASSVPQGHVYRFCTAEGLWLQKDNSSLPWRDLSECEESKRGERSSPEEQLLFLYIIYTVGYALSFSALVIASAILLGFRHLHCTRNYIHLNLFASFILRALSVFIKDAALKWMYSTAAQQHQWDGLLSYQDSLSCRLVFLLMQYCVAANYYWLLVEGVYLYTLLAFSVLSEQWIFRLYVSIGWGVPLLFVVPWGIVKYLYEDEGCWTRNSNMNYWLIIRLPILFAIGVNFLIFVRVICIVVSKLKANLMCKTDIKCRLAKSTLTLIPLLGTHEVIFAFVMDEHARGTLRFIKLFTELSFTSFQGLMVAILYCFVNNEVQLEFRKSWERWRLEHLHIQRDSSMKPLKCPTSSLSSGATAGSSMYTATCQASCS
Source text: CHO and HEK-293 recombinant cell lines express a luciferase reporter gene under control of the CAMP responsive element (CRE). As a second recombinant protein the GLP-1 and NPY2 receptors were expressed in the reporter gene HEK cells, and the GIP receptor was expressed in the reporter gene CHO cells, respectively. Stimulation of these recombinant cells with an agonist leads to an increase of intracellular CAMP levels. In the presence of CAMP, the transcription factor CRE binding protein (CREB) binds to the CRE and to the CREB binding protein (CBP), which leads to transcription of the luciferase reporter gene. Peptides upon serial-dilution in 100% DMSO were transferred into 384-well assay plates with 5 μl pre-dispensed assay buffer (1×HBSS, 20 mM HEPES, pH7.4 supplemented with 0.5% human plasma) using acoustic dispensing on a Labcyte ECHO. Cryo-preserved transgenic reporter gene cells were thawed in assay buffer. 20 μl (10.000 cells/well) were added to the plate with the peptides and incubated for 4 hours at 37° C. in a humidified incubator. Following incubation, assay plates are equilibrated to room temperature, followed by addition of 25 μl of Bright-Glo™ Luciferase reagent, incubation at room temperature for 10 minutes and analysis of luminescence (Envision Reader). […] EC50 values were calculated by non-linear regression using sigmoid concentration-response with variable slope.
The same assays were run in the presence of 100% plasma with no additional buffer constituents.

[2] = target: T2, hGIPR (Homo sapiens, UniProt P48546); test: hGIPR CreLuc assay in 0.5% and 100% plasma (CHO CRE-luciferase reporter cells); format: cell-based
T2 construct: expressed in transfected cells; host or cells: CHO CRE-luciferase reporter cells
T2 sequence (P48546 22-466): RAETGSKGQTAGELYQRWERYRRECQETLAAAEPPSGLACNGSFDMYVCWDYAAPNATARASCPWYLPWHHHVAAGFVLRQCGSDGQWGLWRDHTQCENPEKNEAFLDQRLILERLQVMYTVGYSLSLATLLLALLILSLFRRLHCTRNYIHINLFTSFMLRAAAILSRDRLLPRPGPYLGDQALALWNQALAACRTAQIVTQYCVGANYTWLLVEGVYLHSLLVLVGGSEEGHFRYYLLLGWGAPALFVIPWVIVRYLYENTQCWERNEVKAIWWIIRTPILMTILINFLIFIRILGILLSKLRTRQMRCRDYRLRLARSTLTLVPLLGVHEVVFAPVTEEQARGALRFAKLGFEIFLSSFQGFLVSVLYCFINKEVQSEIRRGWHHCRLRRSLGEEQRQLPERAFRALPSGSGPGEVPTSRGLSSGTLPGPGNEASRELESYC

[3] = 0.5% human plasma, read-out: hGLP1R 0.5% hP
[4] = 0.5% human plasma, read-out: hGIPR 0.5% hP
[5] = 100% human plasma, read-out: hGIPR 100% hP

SMILES	EC50 ([1]; hGLP1R 100% hP (nM), 100% human plasma)	EC50 ([2]; hGIPR 0.5% hP (nM), 0.5% human plasma)	EC50 ([2]; hGIPR 100% hP (nM), 100% human plasma)	EC50 [1, 3]	EC50 [2, 4]	EC50 ([1]; 100% human plasma, read-out: hGLP1R 100% hP)	EC50 [2, 5]
CC[C@H](C)[C@H](NC(=O)[C@H](Cc1ccccc1)NC(=O)[C@H](C)NC(=O)C(C)(C)NC(=O)[C@H](CCC(N)=O)NC(=O)[C@H](C)NC(=O)[C@H](CCC(N)=O)NC(=O)[C@H](CCCCN)NC(=O)[C@H](CCC(=O)O)NC(=O)[C@H](CC(C)C)NC(=O)C(C)(C)NC(=O)[C@@H](NC(=O)[C@H](CO)NC(=O)[C@H](CC(C)C)NC(=O)[C@H](CC(=O)O)NC(=O)[C@H](CO)NC(=O)[C@@H](NC(=O)[C@H](Cc1ccccc1)NC(=O)[C@@H](NC(=O)CNC(=O)[C@H](CCC(=O)O)NC(=O)C(C)(C)NC(=O)[C@@H](N)Cc1ccc(O)cc1)[C@@H](C)O)[C@@H](C)O)[C@@H](C)CC)C(=O)N[C@@H](CCCNC(=N)N)C(=O)N[C@@H](Cc1c[nH]cn1)C(=O)N[C@@H](CC(C)C)C(=O)N[C@H](C(=O)N[C@@H](CC(N)=O)C(=O)N[C@@H](CCCCNC(=O)[C@@H](N)CCCCNC(=O)CC[C@H](NC(=O)CC[C@H](NC(=O)CC[C@H](NC(=O)CC[C@H](NC(=O)CC[C@H](NC(=O)CC[C@H](NC(=O)CCCCCCCCCCCCCCCCCCC(=O)O)C(=O)O)C(=O)O)C(=O)O)C(=O)O)C(=O)O)C(=O)O)C(=O)NC(C)(C)C(=O)N[C@H](C(=O)N[C@@H](CCCNC(=N)N)C(=O)N[C@@H](CCC(N)=O)C(=O)N[C@@H](CCCNC(=N)N)C(=O)N[C@@H](Cc1ccc(O)cc1)C(N)=O)[C@@H](C)O)[C@@H](C)CC [Compound 21, Y-Aib-E-G-T-F-T-S-D-L-S-I-Aib-L-E-K-Q-A-Q-Aib-A-F-I-R-H-L-I-N-K(1,3)-Aib-T-R-Q-R-Y-NH2.C20DA-gGlu-gGlu-gGlu-gGlu-gGlu-gGlu-eLys(1,2)]	13.9 nM	0.2 nM	5.6 nM	–	–	–	–
CC[C@H](C)[C@H](NC(=O)[C@H](CC(C)C)NC(=O)[C@H](Cc1c[nH]cn1)NC(=O)[C@H](CCCNC(=N)N)NC(=O)[C@@H](NC(=O)[C@H](Cc1ccccc1)NC(=O)[C@H](C)NC(=O)C(C)(C)NC(=O)[C@H](CCC(N)=O)NC(=O)[C@H](C)NC(=O)[C@H](CCC(N)=O)NC(=O)[C@H](CCCCN)NC(=O)[C@H](CCC(=O)O)NC(=O)[C@H](CC(C)C)NC(=O)C(C)(C)NC(=O)[C@@H](NC(=O)[C@H](CO)NC(=O)[C@H](Cc1ccc(O)cc1)NC(=O)[C@H](CC(=O)O)NC(=O)[C@H](CO)NC(=O)[C@@H](NC(=O)[C@H](Cc1ccccc1)NC(=O)[C@@H](NC(=O)CNC(=O)[C@H](CCC(=O)O)NC(=O)C(C)(C)NC(=O)[C@@H](N)Cc1ccc(O)cc1)[C@@H](C)O)[C@@H](C)O)[C@@H](C)CC)C(C)C)C(=O)N[C@@H](CC(N)=O)C(=O)N[C@@H](CCCCNC(=O)CC[C@H](NC(=O)CC[C@H](NC(=O)CC[C@H](NC(=O)CC[C@H](NC(=O)CC[C@H](NC(=O)CC[C@H](NC(=O)CCCCCCCCCCCCCCCCCCC(=O)O)C(=O)O)C(=O)O)C(=O)O)C(=O)O)C(=O)O)C(=O)O)C(=O)NC(C)(C)C(=O)N[C@H](C(=O)N[C@@H](CCCNC(=N)N)C(=O)N(C)[C@@H](CCC(N)=O)C(=O)N[C@@H](CCCNC(=N)N)C(=O)N[C@@H](Cc1ccc(O)cc1)C(N)=O)[C@@H](C)O [Compound 114, Y-Aib-E-G-T-F-T-S-D-Y-S-I-Aib-L-E-K-Q-A-Q-Aib-A-F-V-R-H-L-I-N-K(1,3)-Aib-T-R-NMeQ-R-Y-NH2.C20DA-gGlu-gGlu-gGlu-gGlu-gGlu-gGlu(1,2)]	–	–	–	1.8 nM	0.5 nM	–	–
CC[C@H](C)[C@H](NC(=O)[C@H](C)NC(=O)[C@H](Cc1ccc(O)cc1)NC(=O)[C@H](CC(=O)O)NC(=O)[C@H](CO)NC(=O)[C@@H](NC(=O)[C@H](Cc1ccccc1)NC(=O)[C@@H](NC(=O)CNC(=O)[C@H](CCC(=O)O)NC(=O)C(C)(C)NC(=O)[C@@H](N)Cc1ccc(O)cc1)[C@@H](C)O)[C@@H](C)O)C(=O)NC(C)(C)C(=O)N[C@@H](CC(C)C)C(=O)N[C@@H](CCC(=O)O)C(=O)N[C@@H](CCCCN)C(=O)N[C@@H](CCC(N)=O)C(=O)N[C@@H](C)C(=O)N[C@@H](CCC(N)=O)C(=O)NC(C)(C)C(=O)N[C@@H](C)C(=O)N[C@@H](Cc1ccccc1)C(=O)N[C@H](C(=O)N[C@@H](CCCNC(=N)N)C(=O)N[C@@H](Cc1c[nH]cn1)C(=O)N[C@@H](CC(C)C)C(=O)N[C@H](C(=O)N[C@@H](CC(N)=O)C(=O)N[C@@H](CCCCNC(=O)[C@@H](N)CCCCNC(=O)CC[C@H](NC(=O)CC[C@H](NC(=O)CC[C@H](NC(=O)CC[C@H](NC(=O)CC[C@H](NC(=O)CC[C@H](NC(=O)CCCCCCCCCCCCCCCCC(=O)O)C(=O)O)C(=O)O)C(=O)O)C(=O)O)C(=O)O)C(=O)O)C(=O)NC(C)(C)C(=O)N[C@H](C(=O)N[C@@H](CCCNC(=N)N)C(=O)N[C@@H](CCC(N)=O)C(=O)N[C@@H](CCCNC(=N)N)C(=O)N[C@@H](Cc1ccc(O)cc1)C(N)=O)[C@@H](C)O)[C@@H](C)CC)C(C)C [Compound 142, Y-Aib-E-G-T-F-T-S-D-Y-A-I-Aib-L-E-K-Q-A-Q-Aib-A-F-V-R-H-L-I-N-K(1,3)-Aib-T-R-Q-R-Y-NH2.C18DA-gGlu-gGlu-gGlu-gGlu-gGlu-gGlu-eLys(1,2)]	–	–	–	–	0.3 nM	8 nM	3.4 nM
CC[C@H](C)[C@H](NC(=O)[C@H](CC(C)C)NC(=O)[C@H](Cc1c[nH]cn1)NC(=O)[C@H](CCCNC(=N)N)NC(=O)[C@@H](NC(=O)[C@H](Cc1ccccc1)NC(=O)[C@H](C)NC(=O)C(C)(C)NC(=O)[C@H](CCC(N)=O)NC(=O)[C@H](C)NC(=O)[C@H](CCC(N)=O)NC(=O)[C@H](CCCNC(=N)N)NC(=O)[C@H](CC(=O)O)NC(=O)[C@H](CC(C)C)NC(=O)C(C)(C)NC(=O)[C@@H](NC(=O)[C@H](CO)NC(=O)[C@H](Cc1ccc(O)cc1)NC(=O)[C@H](CC(=O)O)NC(=O)[C@H](CO)NC(=O)[C@@H](NC(=O)[C@H](Cc1ccccc1)NC(=O)[C@@H](NC(=O)CNC(=O)[C@H](CCC(=O)O)NC(=O)C(C)(C)NC(=O)[C@@H](N)Cc1ccc(O)cc1)[C@@H](C)O)[C@@H](C)O)[C@@H](C)CC)C(C)C)C(=O)N[C@@H](CC(N)=O)C(=O)N[C@@H](CCCCNC(=O)[C@@H](N)CCCCNC(=O)CC[C@H](NC(=O)CC[C@H](NC(=O)CC[C@H](NC(=O)CC[C@H](NC(=O)CC[C@H](NC(=O)CC[C@H](NC(=O)CCCCCCCCCCCCCCCCC(=O)O)C(=O)O)C(=O)O)C(=O)O)C(=O)O)C(=O)O)C(=O)O)C(=O)NC(C)(C)C(=O)N[C@H](C(=O)N[C@@H](CCCNC(=N)N)C(=O)N[C@@H](CCC(N)=O)C(=O)N[C@@H](CCCNC(=N)N)C(=O)N[C@@H](Cc1ccc(O)cc1)C(N)=O)[C@@H](C)O [Compound 147, Y-Aib-E-G-T-F-T-S-D-Y-S-I-Aib-L-D-R-Q-A-Q-Aib-A-F-V-R-H-L-I-N-K(1,3)-Aib-T-R-Q-R-Y-NH2.C18DA-gGlu-gGlu-gGlu-gGlu-gGlu-gGlu-eLys(1,2)] (H-Y[Aib]EGTFTSDYSI[Aib]LDRQAQ[Aib]AFVRHLINK([εLys-γGlu-γGlu-γGlu-γGlu-γGlu-γGlu-C18 diacid])[Aib]TRQRY-NH2)	–	–	–	0.3 nM	0.2 nM	–	5 nM
CC[C@H](C)[C@H](NC(=O)[C@H](CO)NC(=O)[C@H](Cc1ccc(O)cc1)NC(=O)[C@H](CC(=O)O)NC(=O)[C@H](CO)NC(=O)[C@@H](NC(=O)[C@H](Cc1ccccc1)NC(=O)[C@@H](NC(=O)CNC(=O)[C@H](CCC(=O)O)NC(=O)C(C)(C)NC(=O)[C@@H](N)Cc1ccc(O)cc1)[C@@H](C)O)[C@@H](C)O)C(=O)NC(C)(C)C(=O)N[C@@H](CC(C)C)C(=O)N[C@@H](CC(=O)O)C(=O)N[C@@H](CCCCN)C(=O)N[C@@H](CCC(N)=O)C(=O)N[C@@H](C)C(=O)N[C@@H](CCC(N)=O)C(=O)NC(C)(C)C(=O)N[C@@H](C)C(=O)N[C@@H](Cc1ccccc1)C(=O)N[C@H](C(=O)N[C@@H](CCCNC(=N)N)C(=O)N[C@@H](Cc1c[nH]cn1)C(=O)N[C@@H](CC(C)C)C(=O)N[C@@H](CC(C)C)C(=O)N[C@@H](CC(N)=O)C(=O)N[C@@H](CCCCNC(=O)[C@@H](N)CCCCNC(=O)CC[C@H](NC(=O)CC[C@H](NC(=O)CC[C@H](NC(=O)CC[C@H](NC(=O)CC[C@H](NC(=O)CC[C@H](NC(=O)CCCCCCCCCCCCCCCCC(=O)O)C(=O)O)C(=O)O)C(=O)O)C(=O)O)C(=O)O)C(=O)O)C(=O)NC(C)(C)C(=O)N[C@H](C(=O)N[C@@H](CCCNC(=N)N)C(=O)N[C@@H](CCC(N)=O)C(=O)N[C@@H](CCCNC(=N)N)C(=O)N[C@@H](Cc1ccc(O)cc1)C(N)=O)[C@@H](C)O)C(C)C [Compound 173, Y-Aib-E-G-T-F-T-S-D-Y-S-I-Aib-L-D-K-Q-A-Q-Aib-A-F-V-R-H-L-L-N-K(1,3)-Aib-T-R-Q-R-Y-NH2.C18DA-gGlu-gGlu-gGlu-gGlu-gGlu-gGlu-eLys(1,2)]	–	–	–	0.2 nM	0.7 nM	–	–
